From patent publication US5648347A, “Arylmorpholine, preparation and use” (Glaxo Wellcome Inc., priority 1991, dated 1997)
Where a name gives a salt, the structure may show the parent alone.

Test system: tetrabenazine-induced sedation
Assay: Antitetrabenazine Test: prevention of tetrabenazine-induced sedation in mice
Assay type: in vivo, Mouse (CD1 males)
Conditions: 0.5 h; Antitetrabenazine Activity in the Mouse; compound ip 30 min before tetrabenazine hydrochloride (ip); scored 30 min after tetrabenazine; read-out: ED50 (amount of the test compound required to reverse the tetrabenazine effects in 50 percent of the animals tested)
Protocol: Prevention of tetrabenazine-induced sedation was measured using a modification of the method of Vernier et al., First Hahnemann Symposium on Psychosomatic Medicine, ed. Nodim and Moyer, pub. Lea and Febiger, Philadelphia, 1962.
Mice, groups of 12 CD1 males each, were injected intraperitoneally (ip) with the hydrochloride salt of a compound of formula (I) in physiological saline solution or with physiological saline solution alone. Thirty minutes later each of the mice was injected (ip, 35 mg/kg) with a solution of tetrabenazine hydrochloride. Thirty minutes after the injection of tetrabenazine each mouse was examined for its level of exploratory behavior which was scored on a modification of the arbitrary scale defined by Vernier et. al. The result reported in Table I as the ED50 value is the amount of the test compound required to reverse the tetrabenazine effects in 50 percent of the animals tested.

Row | SMILES | ED50
1 | C[C@@H]1[C@@H](c2cccc(F)c2)OC[C@H](C)N1C (relative stereo) [Example 14, (+-)-(2R*,3R*,5S*)-2-(3-fluorophenyl)-3,4,5-trimethylmorpholine hydrochloride] | 8 mg/kg
2 | C[C@@H]1[C@@H](c2ccc(F)cc2)OC[C@H](C)N1C (relative stereo) [Example 18, (+-)-(2R*,3R*,5S*)-2-(4-fluorophenyl)-3,4,5-trimethylmorpholine] | 6 mg/kg
3 | C[C@@H]1CO[C@@H](c2ccc(F)c(F)c2)[C@H](C)N1.Cl [Example 2, (2S,3S,5R)-2-(3,4-difluorophenyl)-3,5-dimethylmorpholine hydrochloride] | 8 mg/kg
4 | C[C@H]1CO[C@H](c2ccc(F)cc2)[C@@H](C)N1 (relative stereo) [Example 13, (+-)-(2R*,3R*,5S*)-2-(4-fluorophenyl)-3,5-dimethylmorpholine hydrochloride] | 4 mg/kg
5 | C[C@@H]1CO[C@@H](c2ccc(F)cc2)[C@H](C)N1 [Example 12, (2S,3S,5R)-2-(4-fluorophenyl)-3,5-dimethylmorpholine hydrochloride] | 6 mg/kg
6 | C[C@H]1CO[C@H](c2cccc(F)c2F)[C@@H](C)N1 (relative stereo) [Example 7, (+-)-(2R*,3R*,5S*)-2-(2,3-difluorophenyl)-3,5-dimethylmorpholine hydrochloride] | 4 mg/kg
7 | C[C@H]1CO[C@H](c2ccc(F)cc2)[C@@H](C)N1 [Example 6, (2R,3R,5S)-2-(4-fluorophenyl)-3,5-dimethylmorpholine hydrochloride] | 10 mg/kg
8 | C[C@@H]1CO[C@@H](c2cccc(F)c2)[C@H](C)N1C [Example 16, (2S,3S,5R)-2-(3-fluorophenyl)-3,4,5-trimethylmorpholine hydrochloride] | 8 mg/kg
9 | C[C@H]1CO[C@H](c2cccc(F)c2)[C@@H](C)N1 (relative stereo) [Example 1, (+-)-(2R*,3R*,5S*)-2-(3-fluorophenyl)-3,5-dimethylmorpholine hydrochloride] | 4 mg/kg
